Values after ≈ are worked out from the molar mass of the structure shown. Active and inactive are the calls of the source. No cut-off for these calls is given here. *1 amine or outer side, *2 acyl side, *3 side chain or, on linkers, in order; H or OH if unused. Where a SMILES comes first, the peptide text is derived from it. Bridges are numbered along the chain shown (N, C = ends). [ ]: non-standard residue; d: D form. The star is where a group is joined. pTerphenylCO(4''-OnC5H11) = CCCCCOc1ccc(-c2ccc(-c3ccc(C(=O)*)cc3)cc2)cc1; Orn(4R-OH,5R-OH) = O=C([C@H](C[C@@H](O)[C@@H](O)N[*:3])N[*:1])[*:2]; hTyr(3S-OH,4S-OH) = N[C@H](C(=O)O)[C@H](O)[C@@H](O)c1ccc(O)cc1; Pro(3S-OH,4S-Me) = C[C@H]1CN[C@H](C(=O)O)[C@H]1O; Hyp = O=C(O)[C@@H]1C[C@@H](O)CN1
What was measured:
Candida albicans [1] = experiment: Antifungal activity against Candida albicans M61 grown as planktonic cell assessed as minimum drug level required to decrease turbidity by 50% after 24 hrs by CLSI M27-A2 method; type: functional; conditions: M61, 24 h
Candida albicans [2] = experiment: Antifungal activity against Candida albicans GDH2346 grown as planktonic cell assessed as minimum drug level required to decrease turbidity by 50% after 24 hrs by CLSI M27-A2 method; type: functional; conditions: GDH2346, 24 h
Candida parapsilosis [3] = experiment: Antifungal activity against Candida parapsilosis PA/71 grown as planktonic cell assessed as minimum drug level required to decrease turbidity by 50% after 24 hrs by CLSI M27-A2 method; type: functional; conditions: Lodderomyces parapsilosis, PA/71, 24 h
Candida albicans [4] = experiment: Antifungal activity against Candida albicans M61 grown as biofilm assessed as 50% reduction in metabolic activity of biofilm at 0.06 mg/liter after 24 hrs by XTT assay; type: functional, organism-based
Candida albicans [5] = experiment: Antifungal activity against Candida albicans GDH2346 grown as biofilm assessed as 50% reduction in metabolic activity of biofilm at 0.03 mg/liter after 24 hrs by XTT assay; type: functional, organism-based
Candida albicans [6] = experiment: Antifungal activity against Candida albicans M61 grown as biofilm at >2 mg/liter after 24 hrs by XTT assay; type: functional, organism-based
Candida albicans [7] = experiment: Antifungal activity against Candida albicans GDH2346 grown as biofilm >2 mg/liter after 24 hrs by XTT assay; type: functional, organism-based
Candida albicans [8] = experiment: Antifungal activity against Candida albicans M61 grown as biofilm assessed as maximum inhibition of biofilm metabolic activity at 2 mg/liter after 24 hrs by XTT assay relative to control; type: functional; conditions: M61, 24 h
Candida albicans [9] = experiment: Antifungal activity against Candida albicans GDH2346 grown as biofilm assessed as maximum inhibition of biofilm metabolic activity at 2 mg/liter after 24 hrs by XTT assay relative to control; type: functional; conditions: GDH2346, 24 h
Candida parapsilosis [10] = experiment: Antifungal activity against Candida parapsilosis PA/71 grown as biofilm >2 mg/liter after 24 hrs by XTT assay; type: functional, organism-based
Candida parapsilosis [11] = experiment: Antifungal activity against Candida parapsilosis PA/71 grown as biofilm assessed as 50% reduction in metabolic activity of biofilm after 24 hrs by XTT assay; type: functional; conditions: Lodderomyces parapsilosis, PA/71, 24 h
Candida albicans [12] = experiment: Antifungal activity against Candida albicans M61 grown as biofilm assessed as 50% reduction in metabolic activity of biofilm at 256 mg/liter after 24 hrs by XTT assay; type: functional, organism-based
Candida albicans [13] = experiment: Antifungal activity against Candida albicans GDH2346 grown as biofilm assessed as 50% reduction in metabolic activity of biofilm at 256 mg/liter after 24 hrs by XTT assay; type: functional, organism-based
Candida parapsilosis [14] = experiment: Antifungal activity against Candida parapsilosis PA/71 grown as biofilm assessed as 50% reduction in metabolic activity of biofilm at 256 mg/liter after 24 hrs by XTT assay; type: functional, organism-based
Candida albicans [15] = experiment: Antifungal activity against Candida albicans M61 grown as biofilm assessed as 50% reduction in metabolic activity of biofilm after 24 hrs by XTT assay; type: functional; conditions: M61, 24 h
Candida albicans [16] = experiment: Antifungal activity against Candida albicans GDH2346 grown as biofilm assessed as 50% reduction in metabolic activity of biofilm after 24 hrs by XTT assay; type: functional; conditions: GDH2346, 24 h
Candida albicans [17] = experiment: Antifungal activity against Candida albicans GDH2346 grown as biofilm assessed as maximum inhibition of biofilm metabolic activity at 8 mg/liter after 24 hrs by XTT assay relative to control; type: functional; conditions: GDH2346, 24 h
Candida albicans [18] = experiment: Antifungal activity against Candida albicans M61 grown as biofilm assessed as maximum inhibition of biofilm metabolic activity at 0.5 mg/liter after 24 hrs by XTT assay relative to control; type: functional; conditions: M61, 24 h
Candida albicans [19] = experiment: Antifungal activity against Candida albicans M61 grown as biofilm assessed as 50% reduction in metabolic activity of biofilm at 64 mg/liter after 24 hrs by XTT assay; type: functional, organism-based
Candida albicans [20] = experiment: Antifungal activity against Candida albicans GDH2346 grown as biofilm assessed as 50% reduction in metabolic activity of biofilm at 64 mg/liter after 24 hrs by XTT assay; type: functional, organism-based
Candida parapsilosis [21] = experiment: Antifungal activity against Candida parapsilosis PA/71 grown as biofilm assessed as 50% reduction in metabolic activity of biofilm at 64 mg/liter after 24 hrs by XTT assay; type: functional, organism-based

SMILES: CC[C@H](C)C[C@H](C)CCCCCCCCC(=O)N[C@H]1C[C@@H](O)[C@@H](NCCN)NC(=O)[C@@H]2[C@@H](O)CCN2C(=O)[C@H]([C@H](O)CCN)NC(=O)[C@H]([C@H](O)[C@@H](O)c2ccc(O)cc2)NC(=O)[C@@H]2C[C@@H](O)CN2C(=O)[C@H]([C@@H](C)O)NC1=O [CASPOFUNGIN]
- MIC (Candida albicans [1]): 0.06 µg/mL (≈ 0.0549 µM)
- MIC (Candida albicans [2]): 0.03 µg/mL (≈ 0.0274 µM)
- MIC (Candida parapsilosis [3]): 0.06 µg/mL (≈ 0.0549 µM)
- Activity (Candida albicans [4]): Active
- Activity (Candida albicans [5]): Active
- Activity (Candida albicans [6]): Active
- Activity (Candida albicans [7]): Active
- inhibition at 2 µg/mL (Candida albicans [8]): 30%
- inhibition at 2 µg/mL (Candida albicans [9]): 30%
- Activity (Candida parapsilosis [10]): Active
- MIC (Candida parapsilosis [11]): 1 µg/mL (≈ 0.915 µM)

SMILES: C[C@@H](c1ncncc1F)[C@](O)(Cn1cncn1)c1ccc(F)cc1F [VORICONAZOLE]
- MIC (Candida albicans [1]): 0.01 µg/mL (≈ 0.0286 µM)
- MIC (Candida albicans [2]): 4 µg/mL (≈ 11.5 µM)
- MIC (Candida parapsilosis [3]): 0.03 µg/mL (≈ 0.0859 µM)
- Activity (Candida albicans [12]): inactive
- Activity (Candida albicans [13]): inactive
- Activity (Candida parapsilosis [14]): inactive
- MIC (Candida parapsilosis [11]): 256 µg/mL (≈ 733 µM)

SMILES: CCCCCOc1ccc(-c2ccc(-c3ccc(C(=O)N[C@H]4C[C@@H](O)[C@@H](O)NC(=O)[C@@H]5[C@@H](O)[C@@H](C)CN5C(=O)[C@H]([C@@H](C)O)NC(=O)[C@H]([C@H](O)[C@@H](O)c5ccc(O)cc5)NC(=O)[C@@H]5C[C@@H](O)CN5C(=O)[C@H]([C@@H](C)O)NC4=O)cc3)cc2)cc1 [ANIDULAFUNGIN] ({pTerphenylCO(4''-OnC5H11)}-[Orn(4R-OH,5R-OH)]T[Hyp][hTyr(3S-OH,4S-OH)]T[Pro(3S-OH,4S-Me)]; lactam 1-C)
- MIC (Candida albicans [1]): 0.003 µg/mL (≈ 0.00263 µM)
- MIC (Candida albicans [2]): 0.003 µg/mL (≈ 0.00263 µM)
- MIC (Candida parapsilosis [3]): 0.125 µg/mL (≈ 0.11 µM)
- MIC (Candida albicans [15]): 0.5 µg/mL (≈ 0.438 µM)
- MIC (Candida albicans [16]): 0.12 µg/mL (≈ 0.105 µM)
- inhibition at 8 µg/mL (Candida albicans [17]): 40%
- inhibition at 0.5 µg/mL (Candida albicans [18]): 40%
- MIC (Candida parapsilosis [11]): 2 µg/mL (≈ 1.75 µM)

SMILES: CC[C@@H]([C@H](C)O)n1ncn(-c2ccc(N3CCN(c4ccc(OC[C@@H]5CO[C@@](Cn6cncn6)(c6ccc(F)cc6F)C5)cc4)CC3)cc2)c1=O [POSACONAZOLE]
- MIC (Candida albicans [1]): ≤ 0.001 µg/mL
- MIC (Candida albicans [2]): ≤ 0.001 µg/mL
- MIC (Candida parapsilosis [3]): 0.01 µg/mL (≈ 0.0143 µM)
- Activity (Candida albicans [19]): inactive
- Activity (Candida albicans [20]): inactive
- Activity (Candida parapsilosis [21]): inactive
- MIC (Candida parapsilosis [11]): > 256 µg/mL

Reference: ChEMBL document CHEMBL1151450, “Differential activities of newer antifungal agents against Candida albicans and Candida parapsilosis biofilms” (2008)
